# Test results as given in US4959368A, “Therapeutic agent for neurological diseases” (Mitsui Petrochemical Industries Ltd., priority 1986, dated 1990).
# Experiments:
# [1] = system: mice; experiment: Acute toxicity, mouse; type: in vivo; details: 24 hours
# Procedure: (§1) The acute toxicity of the compounds of the invention was examined by the following method.
# (§2) Male ddy-strain 5-week old mice and male Wistar-strain 8 week old rats, five per group, were used as experimental animals. Each of the compounds was dissolved in saline and administered perorally, and the toxicity of the compound was assessed 24 hours after the administration.
# [2] = Acute toxicity, mouse; type: in vivo; details: in vivo, po, Table 6, p.o., read-out: Presumed LD50
# Procedure: as §1, §2
# [3] = system: rats; experiment: Acute toxicity, rat; type: in vivo; details: 24 hours
# Procedure: as §1, §2
# [4] = Acute toxicity, rat; type: in vivo; details: in vivo, po, read-out: Presumed LD50
# Procedure: as §1, §2
# [5] = system: human neuroblastoma cell line GOTO; experiment: Activity on cell line GOTO (simple method); type: cell-based; details: Table 2 GOTO Run No. 2; 10 μg/ml; control 8.4
# Procedure: (§3) The biological activities in vitro of the compounds of formula (I) on cells of the nervous system were tested. The cells tested were human neuroblastoma cell line GOTO [see Sekiguchi, M., Oota, T., Sakakibara, K., Inui, N. & Fujii, G., Japan. J. Exp. Med., 49, 67-83 (1979)], and neuroblastoma cell line NB-1 [see Miyake, S., Shimo, Y., Kitamura, T., Nojyo, Y., Nakamura, T., Imkashuku, S. and Abe, T., The Autonomic Nervous System, 10, 115-120 (1973)], and mouse neuroblastoma cell line neuro-2a (Dainippon Pharmaceutical Co., Ltd.) which have been established as the cells of the nervous system. The above neuve cells were grown in an incubator at 37° C. in the presence of 5% carbon dioxide gas exponentially, and then cultivated for a certain period of time together with the compounds of formula (I).
# A culture medium [composed of 45% of RPMI 1640 medium, 45% modified Eagle's medium (MEM) and 10% of fetal calf serum (FCS) and containing penicillin G sodium (100 units/ml) and streptomycin sulfate (100 microgram/ml)] containing neurobalstoma cell line GOTO in the logarithmic growth period was poured in an amount of 2 ml each into polystyrene dishes (35 mm; made by Corning Co.) so that the cell concentration was 2 to 6×10^4 cells per dish, and the cells were cultured for 1 to 2 days in a carbon dioxide gas incubator containing 5% of carbon dioxide gas in air at 37° C. Then, the culture fluid was removed, and 2 ml of a fresh serum-free culture fluid (consisting of 50% of RPMI medium and 50% of MEM medium and containing penicillin G sodium and streptomycin sulfate in the same amounts as above) was added. At the same time, a presterilized PBS solution (phosphate buffered saline) of each of the test compounds in various concentrations was added to each of the dishes. After culturing for 24 hours, the number of living cells was counted. Furthermore, the culture was photographed, and from the photos, the number and length of neurites per cell were measured. The numer of living cells was counted for 3 to 6 dishes by resistance to staining with erythrosine dye. The number and length of the neurites were measured with regard to 6 photos (more than 200 cells per photo).
# (§4) As a simple method of evaluation, the number of cells have neurites with a length equal to, or larger than, the long diameter of the cell was divided by the total number of cells.
# [6] = system: mouse neuroblastoma cell line neuro-2a; experiment: Activity on cell line neuro-2a (simple method); type: cell-based; details: control 7.9
# Procedure: as §3, with “(I). […]” for “(I).”
# as §4
# [7] = system: human neuroblastoma cell line GOTO; experiment: Activity on neuroblastoma cell line GOTO (cell number, number and length of neurites); type: cell-based; details: for Number of cells: control 3.17
# Procedure, shortened: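 GOTO cells were cultured 1–2 days at 37 °C, 5% CO2, then switched to serum-free RPMI/MEM (1:1) with compounds in PBS at various concentrations for 24 h. Living cells were counted by erythrosine exclusion (3–6 dishes); neurite number and length per cell were measured from photographs.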
# [8] = system: mouse neuroblastoma cell line neuro-2a; experiment: Activity on neuro-2a, cells with outgrown neurites; type: cell-based; details: Table 3 Run No. 6, control 4.4 ± 0.9
# Procedure, shortened: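 Mouse neuro-2a cells in DMEM with FCS exposed to compounds for 24 h (up to 6 concentrations, triplicate runs), glutaraldehyde-fixed and methylene blue-stained. Proportion of cells bearing a neurite at least twice the cell's long diameter counted microscopically over ≥200 cells.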
# [9] = Table 2 neuro-2a Run No. 1, 1 μg/ml
# [10] = Table 2 neuro-2a Run No. 1, 10 μg/ml
# [11] = Table 1 Run No. 3, 1 μg/ml, control 1.94 ± 0.69, all *P <0.01
# [12] = Table 1 Run No. 3, 1 μg/ml, control 45.13 ± 22.71, all *P <0.01
structure (smiles),measurement,setting,value
Cn1ccc2nc(N3CCNCC3)ncc2c1=O [Compound 706],Number of dead animals/number of test animals,"[1]; Table 6, 300 mg/kg p.o.",0/5
same,Number of dead animals/number of test animals,"[1]; Table 6, 500 mg/kg p.o.",2/5
same,Number of dead animals/number of test animals,"[1]; Table 6, 1000 mg/kg p.o.",4/5
same,LD50 at 24 h,[2],550 to 1000 mg/kg
same,Number of dead animals/number of test animals,"[3]; Table 6, 300 mg/kg p.o.",0/5
same,Number of dead animals/number of test animals,"[3]; Table 6, 500 mg/kg p.o.",1/5
same,Number of dead animals/number of test animals,"[3]; Table 6, 1000 mg/kg p.o.",3/5
same,LD50 at 24 h,"[4]; Table 6, p.o.",550 to 1000 mg/kg
same,Average of the proportions,[5],16.39%
same,Average of the proportions,[6]; [9],17.21%
same,Average of the proportions,[6]; [10],15.40%
same,Number of neurites/cell (mean ± S.D.),"[7]; Table 1 Run No. 3, 0.1 μg/ml, control 1.94 ± 0.69, *P <0.01",2.30 ± 0.75 neurites/cell
same,Number of cells,"[7]; Table 1 Run No. 3, 0.1 μg/ml",3.81 × 10^4 /dish
same,Length of neurites (mean ± S.D.),"[7]; Table 1 Run No. 3, 0.1 μg/ml, control 45.13 ± 22.71, *P <0.01",72.11 ± 26.58 μm/cell
same,Number of neurites/cell (mean ± S.D.),[7]; [11],2.26 ± 0.82 neurites/cell
same,Number of cells,"[7]; Table 1 Run No. 3, 1 μg/ml",4.12 × 10^4 /dish
same,Length of neurites (mean ± S.D.),[7]; [12],63.24 ± 28.17 μm/cell
CCn1ccc2nc(N3CCNCC3)ncc2c1=O [Compound 710],Number of dead animals/number of test animals,"[1]; Table 6, 300 mg/kg p.o.",0/5
same,Number of dead animals/number of test animals,"[1]; Table 6, 500 mg/kg p.o.",3/5
same,Number of dead animals/number of test animals,"[1]; Table 6, 1000 mg/kg p.o.",5/5
same,LD50 at 24 h,[2],300 to 550 mg/kg
same,Number of dead animals/number of test animals,"[3]; Table 6, 300 mg/kg p.o.",1/5
same,Number of dead animals/number of test animals,"[3]; Table 6, 500 mg/kg p.o.",2/5
same,Number of dead animals/number of test animals,"[3]; Table 6, 1000 mg/kg p.o.",5/5
same,LD50 at 24 h,"[4]; Table 6, p.o.",550 to 1000 mg/kg
same,Average of the proportions,[5],15.02%
same,Average of the proportions,[6]; [9],15.97%
same,Average of the proportions,[6]; [10],13.70%
same,Number of neurites/cell (mean ± S.D.),"[7]; Table 1 Run No. 1, 10 μg/ml, control 2.09 ± 0.61",2.12 ± 0.51 neurites/cell
same,Number of cells (mean ± S.E.),"[7]; Table 1 Run No. 1, 10 μg/ml, control 14.34 ± 0.72",19.18 ± 0.67 × 10^4 /dish
same,Length of neurites (mean ± S.D.),"[7]; Table 1 Run No. 1, 10 μg/ml, control 70.10 ± 43.03",86.10 ± 50.70 μm/cell
same,Number of neurites/cell (mean ± S.D.),"[7]; Table 1 Run No. 1, 100 μg/ml, control 2.09 ± 0.61",1.71 ± 0.59 neurites/cell
same,Number of cells (mean ± S.E.),"[7]; Table 1 Run No. 1, 100 μg/ml, control 14.34 ± 0.72",11.92 ± 0.66 × 10^4 /dish
same,Length of neurites (mean ± S.D.),"[7]; Table 1 Run No. 1, 100 μg/ml, control 70.10 ± 43.03",47.34 ± 35.11 μm/cell
same,Number of neurites/cell (mean ± S.D.),"[7]; Table 1 Run No. 2, 1 μg/ml, control 2.06 ± 0.60",2.14 ± 0.63 neurites/cell
same,Number of cells (mean ± S.E.),"[7]; Table 1 Run No. 2, 1 μg/ml, control 12.30 ± 1.48",17.44 ± 1.50 × 10^4 /dish
same,Length of neurites (mean ± S.D.),"[7]; Table 1 Run No. 2, 1 μg/ml, control 55.00 ± 37.26",73.74 ± 43.49 μm/cell
same,Number of neurites/cell (mean ± S.D.),"[7]; Table 1 Run No. 2, 10 μg/ml, control 2.06 ± 0.60",2.09 ± 0.62 neurites/cell
same,Number of cells (mean ± S.E.),"[7]; Table 1 Run No. 2, 10 μg/ml, control 12.30 ± 1.48",15.15 ± 2.26 × 10^4 /dish
same,Length of neurites (mean ± S.D.),"[7]; Table 1 Run No. 2, 10 μg/ml, control 55.00 ± 37.26",62.74 ± 35.64 μm/cell
same,Number of cells,"[7]; Table 1 Run No. 3, 0.0 μg/ml (so in the source)",3.66 × 10^4 /dish
same,Number of neurites/cell (mean ± S.D.),[7]; [11],2.17 ± 0.79 neurites/cell
same,Number of cells,"[7]; Table 1 Run No. 3, 1 μg/ml",3.92 × 10^4 /dish
same,Length of neurites (mean ± S.D.),[7]; [12],60.93 ± 23.66 μm/cell
CCN1Cc2nc(N3CCNCC3)ncc2C1=O [Compound 616],Number of dead animals/number of test animals,"[1]; Table 7, 1000 mg/kg p.o.",0/5
same,Number of dead animals/number of test animals,"[1]; Table 7, 1700 mg/kg p.o.",0/5
same,Number of dead animals/number of test animals,"[1]; Table 7, 3000 mg/kg p.o.",4/5
same,Number of dead animals/number of test animals,"[3]; Table 7, 1700 mg/kg p.o.",0/5
same,LD50 at 24 h,"[4]; Table 7, p.o.",> 1700 mg/kg
same,Cells having neurites with a length at least twice the long diameter of cell/total number of cells,[8]; 0.3 mM,10.6 ± 1.5%
same,Cells having neurites with a length at least twice the long diameter of cell/total number of cells,[8]; 1 mM,10.3 ± 1.4%
same,Average of the proportions,"[6]; Table 2 neuro-2a Run No. 2, 1 μg/ml",15.79%
same,Average of the proportions,"[6]; Table 2 neuro-2a Run No. 2, 10 μg/ml",18.40%
same,Length of neurites (mean ± S.D.),"[7]; Table 1, Run No. 6 by footnote, 1 μg/ml, control 42.48 ± 19.64, all *P <0.01",56.68 ± 23.36 μm/cell
same,Number of neurites/cell (mean ± S.D.),"[7]; Table 1, Run No. 6 by footnote, 10 μg/ml, control 1.79 ± 0.80",2.13 ± 0.91 neurites/cell
same,Length of neurites (mean ± S.D.),"[7]; Table 1, Run No. 6 by footnote, 10 μg/ml, control 42.48 ± 19.64, all *P <0.01",57.96 ± 27.96 μm/cell
same,Number of neurites/cell (mean ± S.D.),"[7]; Table 1, second control group (Run No. 6 by footnote), 1 μg/ml, control 1.79 ± 0.80",2.04 ± 0.91 neurites/cell
